In patent publication US4382958A, “Secondary amines and compositions for treatment of hypoglycaemia or obesity” (priority 1980, dated 1983):
Where two headings read alike, the source gives them in different places.

How the values were obtained:
[1] = tested on: Platelet aggregation (response to collagen); experiment: Platelet aggregation inhibition activity: response to intravenous collagen in mice; format: in vivo; conditions: two hours before collagen 400 μg/kg i.v.
Method: Male CFLP mice (ca 20 g, n=8) were dosed orally with compound or vehicle (controls) after an overnight fast. Two hours later each mouse received an intravenous dose of collagen (400 μg/kg, pH 6-6.6). Exactly 30 sec. after injection of collagen, each mouse was placed in a chamber of CO2 until respiration ceased. […] Each concentration was expressed as a percent of that obtained in a tail blood sample taken immediately before injection of collagen.

Female CFLP mice [2] = experiment: Effect on energy expenditure and food intake of mice; format: in vivo; conditions: Mus musculus, % of mice dosed with water; for response vs control in vivo at 22.9 mg/kg: 22.9 mg/kg po; for response vs control in vivo at 20 mg/kg: 20.0 mg/kg po; for response vs control in vivo at 23.3 mg/kg: 23.3 mg/kg po; for response vs control in vivo at 24.9 mg/kg: 24.9 mg/kg po; for response vs control in vivo at 20.2 mg/kg: 20.2 mg/kg po; for response vs control in vivo at 19.1 mg/kg: 19.1 mg/kg po; for response vs control in vivo at 20.3 mg/kg: 20.3 mg/kg po; for response vs control in vivo at 22.1 mg/kg: 22.1 mg/kg po; for response vs control in vivo at 5.7 mg/kg: 5.7 mg/kg po
Method: Female CFLP mice each weighing approximately 24 g were given food and water ad lib before and during the experiment. The compounds were dissolved in water by addition of one mole of hydrochloric acid per mole of compound and these solutions were administered orally to each of 12 mice. A further 12 mice were dosed orally with water. The mice were placed in boxes through which air was drawn and the oxygen content of the air leaving the boxes was measured. The energy expenditure of the mice was calculated for 21 hours after dosing from the volume of air leaving the boxes and its oxygen content following the principles described by J. B. de V. Weir, J. Physiol. […] The food intake of the mice was measured over this same period of 21 hours. The results are expressed as a percentage of the mean food intake or rate of energy expenditure of the mice dosed with water.

Rat hearts = experiment: Cardiac activity: rat hearts perfused by the Langendorff procedure
Method: Rat hearts were perfused by the Langendorff procedure.
Hearts were dissected free within 30 seconds of death and reverse perfused via the aorta and coronary vessels with Krebs-Ringer bicarbonate solution (pH 7.4, 37° C.) gassed with 95% oxygen: 5% carbon dioxide at a flow rate between 8-12 cm^3 /minute. Responses were observed after injection of drug dissolved in isotonic saline into the perfusion media.
Results are expressed as a percentage of the maximum response due to salbutamol.

Female CFLP mice [3] = experiment: Hypoglycaemic activity: blood glucose of fasted mice after subcutaneous glucose; format: in vivo; conditions: Mus musculus, read-out: REDUCTION IN AREA UNDER BLOOD GLUCOSE CURVE (%); for inhibition in vivo at 1 µmol/kg: 1.0 μ mol/kg oral
Method: Female CFLP mice, weighing approximately 25 g, were fasted for 24 hours prior to the study. The compounds under study were administered orally as an aqueous solution to each of 8 mice. 30 minutes later a blood sample ([…]) was obtained from the tail for the analysis of blood glucose. Immediately after taking this blood sample, glucose (1 g/kg body weight) was administered subcutaneously to each mouse. 8 mice were given water as a control. Blood samples were then obtained from each mouse at 30 minute intervals for 120 minutes.
Compounds that produced a significant (P<0.05) reduction on blood glucose, compared with control mice given water, at any time interval, were considered active. The area under the blood glucose curve over the 2 hour period after the administration of the glucose was calculated for each compound and compared with the value for control animals.

[4] = 0-3h, read-out: MEAN ENERGY EXPENDITURE (%) 0-3h
[5] = 0-21h, read-out: MEAN ENERGY EXPENDITURE (%) 0-21h
[6] = over 21 hours, read-out: MEAN FOOD INTAKE (%)
[7] = 30 μg added to perfusate, percentage of the maximum response due to salbutamol, read-out: HEART TENSION
[8] = 30 μg added to perfusate, percentage of the maximum response due to salbutamol, read-out: HEART RATE
[9] = 2.5 μ mol/kg oral, 2 hour period after glucose, vs control mice given water
[10] = 2 hour period after glucose, vs control mice given water

Question: Which “% INHIBITION OF RESPONSE TO COLLAGEN” value ([1]; 600 μ mol/kg po) does the source give for CC(=O)Oc1ccccc1C(=O)O [Aspirin, reference compound] here?
Answer: 47%

Question: Which response vs control in vivo at 22.9 mg/kg (Female CFLP mice [2]; [4]) does the source give for CC(Cc1ccc(OCCCCO)cc1)NCC(O)c1cccc(C(F)(F)F)c1 (centres unmarked) [Example 2, N-[2-(4-(4-hydroxybutoxy)phenyl)-1-methylethyl]-2-hydroxy-2-(3-trifluoromethylphenyl)ethanamine] here?
Answer: 168%

Question: And the response vs control in vivo at 22.9 mg/kg (Female CFLP mice [2]; [5])?
Answer: 135%

Question: What about the response vs control in vivo at 22.9 mg/kg (Female CFLP mice [2]; [6]) of the same compound?
Answer: 89%

Question: What about the Emax (Rat hearts; [7]) of the same compound?
Answer: 22%

Question: What about the Emax (Rat hearts; read-out: HEART RATE) of the same compound?
Answer: 0%

Question: And the inhibition in vivo at 2.4 µmol/kg (Female CFLP mice [3]; 2.4 μ mol/kg oral, 2 hour period after glucose, vs control mice given water)?
Answer: 57%

Question: And the “% INHIBITION OF RESPONSE TO COLLAGEN” value ([1]; 1 μ mol/kg po)?
Answer: 26%

Question: Which response vs control in vivo at 20 mg/kg (Female CFLP mice [2]; [4]) does the source give for CC(Cc1ccc(OCCO)cc1)NCC(O)c1cccc(C(F)(F)F)c1 (centres unmarked) [Example 3, N-[2-(4-(2-Hydroxyethoxy)-phenyl)-1-methylethyl]-2-hydroxy-2-(3-trifluoromethylphenyl)ethanamine] here?
Answer: 178%

Question: What about the response vs control in vivo at 20 mg/kg (Female CFLP mice [2]; [5]) of the same compound?
Answer: 134%

Question: And the response vs control in vivo at 20 mg/kg (Female CFLP mice [2]; [6])?
Answer: 82%

Question: What about the Emax (Rat hearts; [8]) of the same compound?
Answer: 17%

Question: What about the Emax (Rat hearts; [7]) of the same compound?
Answer: 50%

Question: What about the inhibition in vivo at 2.5 µmol/kg (Female CFLP mice [3]; [9]) of the same compound?
Answer: 52%

Question: And the “% INHIBITION OF RESPONSE TO COLLAGEN” value ([1]; 1 μ mol/kg po)?
Answer: 47%

Question: What does the source list for CC(Cc1ccc(OCCCCCCCCCCCO)cc1)NCC(O)c1cccc(C(F)(F)F)c1 (centres unmarked) [Example 6, N-[2-(4-(11-Hydroxyundecyloxy)phenyl)1-methylethyl]-2-hydroxy-2-(3-trifluoromethylphenyl)-ethanamine]?
Answer: response vs control in vivo at 23.3 mg/kg (Female CFLP mice [2]; [4]): 132%; response vs control in vivo at 23.3 mg/kg (Female CFLP mice [2]; [5]): 101%; response vs control in vivo at 23.3 mg/kg (Female CFLP mice [2]; [6]): 99%; Emax (Rat hearts; [8]): 0%; Emax (Rat hearts; [7]): 36%; inhibition in vivo at 2.5 µmol/kg (Female CFLP mice [3]; [9]): 24%

Question: What does the source list for CC(Cc1ccc(OC(C)(C)CO)cc1)NCC(O)c1cccc(C(F)(F)F)c1 (centres unmarked) [Example 7, N-[2-(4-(1,1-Dimethyl-2-hydroxyethoxy)phenyl)-1-methylethyl]-2-hydroxy-2-(3-trifluoromethylphenyl)-ethanamine]?
Answer: response vs control in vivo at 24.9 mg/kg (Female CFLP mice [2]; [4]): 145%; response vs control in vivo at 24.9 mg/kg (Female CFLP mice [2]; [5]): 118%; response vs control in vivo at 24.9 mg/kg (Female CFLP mice [2]; [6]): 116%; Emax (Rat hearts; [8]): 46%; Emax (Rat hearts; [7]): 29%; inhibition in vivo at 2.5 µmol/kg (Female CFLP mice [3]; po, 2 h): 45%

Question: How did the response vs control in vivo at 20.2 mg/kg (Female CFLP mice [2]; [4]) turn out when COc1ccc(C(O)CNC(C)Cc2ccc(OCCO)cc2)cc1F (centres unmarked) [Example 8, N-[2-(4-(2-Hydroxyethoxy)phenyl)-1-methylethyl]-2-hydroxy-2-(3-fluoro-4-methoxyphenyl)-ethanamine] was run?
Answer: 138%

Question: And the response vs control in vivo at 20.2 mg/kg (Female CFLP mice [2]; [5])?
Answer: 96%

Question: What about the response vs control in vivo at 20.2 mg/kg (Female CFLP mice [2]; [6]) of the same compound?
Answer: 86%

Question: And the Emax (Rat hearts; [8])?
Answer: 13%

Question: What about the Emax (Rat hearts; [7]) of the same compound?
Answer: 13%

Question: What about the inhibition in vivo at 12.5 µmol/kg (Female CFLP mice [3]; 12.5 μ mol/kg oral, 2 hour period after glucose, vs control mice given water) of the same compound?
Answer: 21%

Question: Which results are given for CC(C)(CCc1ccc(OCCO)cc1)NCC(O)c1ccccc1 (centres unmarked) [Example 9, N-[3-[4-(2-Hydroxyethoxy)phenyl]-1,1-dimethylpropyl]-2-hydroxy-2-phenylethanamine]?
Answer: response vs control in vivo at 19.1 mg/kg (Female CFLP mice [2]; [4]): 102%; response vs control in vivo at 19.1 mg/kg (Female CFLP mice [2]; [5]): 98%; response vs control in vivo at 19.1 mg/kg (Female CFLP mice [2]; [6]): 91%; inhibition in vivo at 50 µmol/kg (Female CFLP mice [3]; 50.0 μ mol/kg oral, 2 hour period after glucose, vs control mice given water): 55%

Question: With CC(CCc1ccc(OCCO)cc1)NCC(O)c1cccc(Cl)c1 (centres unmarked) [Example 10, N-[3-(4-(2-Hydroxyethoxy)phenyl)-1-methylpropyl]-2-hydroxy-2-(3-chlorophenyl)ethanamine] as the compound, how does the response vs control in vivo at 20.3 mg/kg (Female CFLP mice [2]; [4]) read?
Answer: 159%

Question: And the response vs control in vivo at 20.3 mg/kg (Female CFLP mice [2]; [5])?
Answer: 114%

Question: What about the response vs control in vivo at 20.3 mg/kg (Female CFLP mice [2]; [6]) of the same compound?
Answer: 88%

Question: And the inhibition in vivo at 2.5 µmol/kg (Female CFLP mice [3]; [9])?
Answer: 23%

Question: Cc1cc(CC(C)NCC(O)c2cccc(C(F)(F)F)c2)ccc1OCCO (centres unmarked) [Example 11, N-[2-{4-(2-Hydroxyethoxy)-3-methylphenyl}-1-methylethyl]-2-hydroxy-2-(3-trifluoromethylphenyl)ethanamine] was tested. Which response vs control in vivo at 22.1 mg/kg (Female CFLP mice [2]; [4]) did it give?
Answer: 136%

Question: What about the response vs control in vivo at 22.1 mg/kg (Female CFLP mice [2]; [5]) of the same compound?
Answer: 113%

Question: And the response vs control in vivo at 22.1 mg/kg (Female CFLP mice [2]; [6])?
Answer: 115%

Question: And the inhibition in vivo at 1 µmol/kg (Female CFLP mice [3]; [10])?
Answer: 31%

Question: With C[C@H](Cc1ccc(OCCCCO)cc1)NC[C@H](O)c1cccc(C(F)(F)F)c1 [Example 13, N-[2-{4-(4-Hydroxybutoxy)phenyl}-1-(R)-1-methylethyl]-2-(R)-2-hydroxy-2-(3-trifluoromethylphenyl)ethanamine] as the compound, how does the response vs control in vivo at 5.7 mg/kg (Female CFLP mice [2]; [4]) read?
Answer: 134%

Question: What about the response vs control in vivo at 5.7 mg/kg (Female CFLP mice [2]; [5]) of the same compound?
Answer: 116%

Question: What about the response vs control in vivo at 5.7 mg/kg (Female CFLP mice [2]; [6]) of the same compound?
Answer: 93%

Question: And the Emax (Rat hearts; [8])?
Answer: 17%

Question: What about the Emax (Rat hearts; [7]) of the same compound?
Answer: 47%

Question: And the inhibition in vivo at 1 µmol/kg (Female CFLP mice [3]; [10])?
Answer: 37%

Question: With CC(C)(C)NCC(O)c1ccc(O)c(CO)c1 (centres unmarked) [Salbutamol, reference compound] as the compound, how does the Emax (Rat hearts; salbutamol maximum response (reference), dose not stated, read-out: HEART RATE) read?
Answer: 100%

Question: And the Emax (Rat hearts; salbutamol maximum response (reference), dose not stated, read-out: HEART TENSION)?
Answer: 100%
